Assay type in all cases: functional
What all share (conditions): read-out: DIZ

For one assay, the system named is Pseudomonas aeruginosa. The experiment in a line: Antibacterial activity against Pseudomonas aeruginosa at 5 mg/ml after 24 hrs by agar-diffusion technique. A general note: In agar diffusion tests the substance spreads into inoculated agar from a disc or well.
Another assay deals with Rhizoctonia solani. The experiment in a line: Antifungal activity against Rhizoctonia solani at 5 mg/ml by paper disc diffusion method.
A further assay has as its system Bacillus subtilis. Kind of assay: Antibacterial activity against Bacillus subtilis at 5 mg/ml after 24 hrs by agar-diffusion technique.
The subject of the next assay is Fusarium oxysporum. The experiment in a line: Antifungal activity against Fusarium oxysporum at 5 mg/ml by paper disc diffusion method.
For a further assay, the system named is Aspergillus niger. Kind of assay: Antifungal activity against Aspergillus niger at 5 mg/ml by paper disc diffusion method.

The structures appear in SMILES notation.

Experimental findings from ChEMBL document CHEMBL2406921, “Regioselective synthesis, characterization and antimicrobial evaluation of S-glycosides and S,N-diglycosides of 1,2-Dihydro-5-(1H-indol-2-yl)-1,2,4-triazole-3-thione” (2013) are described below.

Regarding `NNC(=O)c1cc2ccccc2[nH]1`, the zone of inhibition at 5000 µg/mL was found to be 3 mm in the assay with Pseudomonas aeruginosa; 0.85 mm in the assay on Rhizoctonia solani; 12 mm with Bacillus subtilis; 1.3 mm in the assay on Fusarium oxysporum; 0 mm in the assay with Aspergillus niger.
With `CC(=O)N[C@@H]1[C@@H](OC(C)=O)[C@H](OC(C)=O)[C@@H](COC(C)=O)O[C@H]1Sc1n[nH]c(-c2cc3ccccc3[nH]2)n1`, the zone of inhibition at 5000 µg/mL in the assay with Pseudomonas aeruginosa amounted to 3.9 mm; with Rhizoctonia solani, 1.75 mm; with Bacillus subtilis, 5.1 mm; in the assay with Fusarium oxysporum, 0 mm; with Aspergillus niger it was 0 mm.
Take `CC(=O)OC[C@H]1O[C@@H](n2nc(-c3cc4ccccc4[nH]3)nc2S[C@@H]2O[C@H](COC(C)=O)[C@@H](OC(C)=O)[C@H](OC(C)=O)[C@H]2OC(C)=O)[C@H](OC(C)=O)[C@@H](OC(C)=O)[C@@H]1OC(C)=O`: the zone of inhibition at 5000 µg/mL turned out to be 2.5 mm with Pseudomonas aeruginosa; 1.15 mm with Rhizoctonia solani; 6.5 mm in the assay on Bacillus subtilis; 1.95 mm with Fusarium oxysporum; 0 mm in the assay on Aspergillus niger.
`CCOC(=O)/C(C)=N/Nc1ccccc1`: the zone of inhibition at 5000 µg/mL in the assay on Pseudomonas aeruginosa is 2.65 mm; in the assay on Rhizoctonia solani, 1.95 mm; in the assay on Bacillus subtilis it was 12 mm; with Fusarium oxysporum, 2.3 mm; in the assay on Aspergillus niger, 1.85 mm.
The matching figures for `NC(=S)NNC(=O)c1cc2ccccc2[nH]1`: 2.5 mm, 1.05 mm, 12 mm, 1 mm and 0 mm.
As to `S=c1nc(-c2cc3ccccc3[nH]2)[nH][nH]1`, the zone of inhibition at 5000 µg/mL is 3.5 mm with Pseudomonas aeruginosa; 0.8 mm with Rhizoctonia solani; 12 mm in the assay on Bacillus subtilis; 1.7 mm in the assay on Fusarium oxysporum; 0 mm in the assay with Aspergillus niger.
For `CC(=O)OC[C@H]1O[C@@H](Sc2n[nH]c(-c3cc4ccccc4[nH]3)n2)[C@H](OC(C)=O)[C@@H](OC(C)=O)[C@@H]1OC(C)=O` the same measures were 3.25 mm, 0.6 mm, 12 mm, 0 mm and 0 mm.
With `CC(=O)OC[C@H]1O[C@@H](Sc2n[nH]c(-c3cc4ccccc4[nH]3)n2)[C@H](OC(C)=O)[C@@H](OC(C)=O)[C@H]1OC(C)=O`, the zone of inhibition at 5000 µg/mL in the assay with Pseudomonas aeruginosa was found to be 0.5 mm; in the assay on Rhizoctonia solani, 0.75 mm; with Bacillus subtilis, 12 mm; with Fusarium oxysporum it was 2.1 mm; in the assay on Aspergillus niger, 0 mm.
The matching figures for `CCOC(=O)c1cc2ccccc2[nH]1`: 4.85 mm, 2.7 mm, 5.6 mm, 1.9 mm and 1.3 mm.
As to `O=C(N[C@H](CO)[C@H](O)c1ccc([N+](=O)[O-])cc1)C(Cl)Cl` [CHLORAMPHENICOL], the zone of inhibition at 5000 µg/mL in the assay with Pseudomonas aeruginosa was found to be 7.9 mm; in the assay on Bacillus subtilis it was 12 mm.
